# Test results published in patent publication US6197225A, “Chromene compound” (Tokuyama Corporation, priority 1997, dated 2001).
# Key:
# [1] = prior-art compound, placed in a dark place after color development; cited from earlier work
# [2] = Aging promotion testing: sunlight 30 min / fading one hour cycles, 10 days (durability, coloring degree); type: physicochemical
# Protocol: In order to promote the aging, furthermore, the following testing was conducted. That is, the obtained photochromic polymer was irradiated with sunlight for 30 minutes to develop color, and its color was permitted to fade for one hour in the light of a fluorescent lamp. This cycle was repeated three times a day for a total of 10 days.
# The photochromic properties before and after aged were evaluated by evaluating the color densities before and after aged. The initial color density (T0) and the color density (T30) ten days after the aging promotion testing were measured, and the durability was expressed as described below.
# Furthermore, the coloring degrees of before developing color were measured before and after aged by using a color difference meter (SM-4) manufactured by Suga Shikenki Co.
# 7 Coloring degree before being aged=YI(0).
# 8 Change in the coloring degree (ΔYI)=YI(10)-YI(0)
# YI(10): coloring degree after aged
# (§1) Photochromic polymers were prepared in the same manner as in Example 42 but using the chromene compounds obtained in Examples 2 to 41, and their maximum absorption wavelengths, color densities, fading rates, changes in the coloring degrees and durabilitys were measured.
# (§2) For the purpose of comparison, furthermore, the compounds represented by the following formulas (a), (b), (c), (d), (e) and (f) were measured for their maximum absorption wavelengths, color densities, fading rates, changes in the coloring degrees and durabilitys.
# (§3) The procedure was carried out in the same manner as in Example 42 but using 100 parts of AC1 and 133 parts of BC1, the sum of the amounts of AC1 and BC1 being 0.04% by weight. The obtained photochromic polymer was measured for its maximum absorption wavelength, initial color, color density, color-developing sensitivity, fading rate, durability and change in the coloring degree.
# (§4) The procedure was carried out in the same manner as in Example 83 but using the known chromene compounds shown in Table 6 instead of the chromene compound used in Example 83. […]
# The obtained polymer (2 mm thick) was caused to develop color outdoors, and tones of the developed color were observed by eyes 30 seconds and 15 minutes after it was brought to the outdoors, and uniformity in the step of developing color was evaluated. […] Furthermore, the aging promoting testing was conducted in the same manner as in Example 42 to find a coloring degree (YI(0)) before aged and a change in the coloring degree (ΔY).
# [3] = Photochromic properties of cast polymer (2 mm thick) under xenon lamp irradiation for 120 seconds; type: physicochemical; details: for λ max: chromene composition, or other chromene C1-C4, 0.04% by weight in polymer; for Initial color ε(0): chromene composition, or other chromene C1-C4, non-irradiated; for Color-developing sensitivity: saturated color density/xenon irradiation time
# Protocol: 0.04% by weight of the chromene compound obtained in Example 1 was added to 70 parts of 4G, 15 parts of 3G, 10 parts of GMA, 5 parts of HEMA and 1 part of perbutyl ND, and was mixed together to a sufficient degree. The mixture solution was poured into a mold constituted by a glass plate and a gasket of an ethylene/vinyl acetate copolymer, and was cast-polymerized. By using an air furnace, the polymerization was conducted in a manner that the temperature was gradually raised from 30° C. to 90° C. over a period of 18 hours, and was held at 90° C. for 2 hours. After the polymerization, the polymer was taken out from the glass mold.
# By using a xenon lamp, L-2480 (300 W) SHL-100, manufactured by Hamamatsu Photonics Co., the obtained polymer (2 mm thick) was irradiated with a beam of an intensity of 365 nm=2.4 mW/cm^2 and 245 nm=24 μW/cm^2 on the surface of the polymer for 120 seconds through an aero-mass filter (manufactured by Corning Co.) at 20° C.±1° C. to develop color and to measure the photochromic properties which were expressed in the following manner.
# 1 Maximum absorption wavelength (λmax): λmax of the polymer after it has developed color was found by using a spectrophotometer (instantaneous multi-channel photo-detector, MCPD1000) manufactured by Otsuka Denshi Kogyo Co.
# 2 Initial color ( ε(0)): Absorbency of the polymer in a non-irradiated state at a wavelength same as the maximum absorption wavelength of when it is irradiated with light.
# 3 Color density (-)=ε(120)-ε(0). ε(120): Absorbency of the polymer at a maximum absorption wavelength after it was irradiated for 120 seconds under the above-mentioned conditions.
# 4 Color-developing sensitivity (-/min.)=Saturated color density/xenon irradiation time.
# Rate of increase in the color density per a unit time until the color density is saturated.
# 5 Color fading rate [t1/2 (min.)]=time required until the absorbency of the polymer drops down to one-half of [ε(120)-ε(0)] after irradiated for 120 seconds.
# as §1, §2, §3, §4
# [4] = YI(10)-YI(0), single chromene compound in polymer, 10 days aging, Table 5
# [5] = single chromene compound in polymer, 10 days aging, Table 5
# [6] = single chromene compound 0.04% by weight in polymer, 20° C., Table 5
# [7] = single chromene compound 0.04% by weight in polymer, 120 seconds, 20° C., Table 5
# [8] = chromene composition, or other chromene C1-C4, 10 days aging, Table 6
# [9] = chromene composition, or other chromene C1-C4, 120 seconds, Table 6
# [10] = chromene composition, or other chromene C1-C4, Table 6
Structure (SMILES),fading rate (in words) [1],"Change in the coloring degree ΔYI [2, 4]","Light resistance (durability) [2, 5] [%]","Fading rate t1/2 [3, 6] [min]","Maximum absorption wavelength λmax [3, 6] [nm]","Color density ε(120)-ε(0) [3, 7]","Change in the coloring degree ΔYI [2, 8]","Durability [2, 8] [%]",λ max ([3]; Table 6) [nm],"Color density ε(120)-ε(0) [3, 9]",Initial color ε(0) ([3]; Table 6),"Fading rate t1/2 [3, 10] [min]",Color-developing sensitivity ([3]; Table 6)
C1=CC2(CC3CCC2C3)Oc2c1ccc1ccccc21 (stereo not drawn) [(A)],slow fading rate,–,–,–,–,–,–,–,–,–,–,–,–
Cc1cc2ccccc2c2c1C=CC(c1ccccc1)(c1ccccc1)O2 [(C)],a fading rate nearly the same as that of the above-mentioned compound (A),–,–,–,–,–,–,–,–,–,–,–,–
COc1ccc(C2(c3ccco3)C=Cc3c(C)cc4c(F)ccc(C)c4c3O2)cc1 (stereo not drawn) [Compound 41],–,3.2,95,6.3,510,1.0,–,–,–,–,–,–,–
"C1=CC2(CC3CCC2C3)Oc2c1ccc1ccccc21 (stereo not drawn) [Compound C1, Spiro(norbornane-2,2'-(2H)benzo(h)chromene), reference compound]",–,–,–,–,–,–,2.0,90,450,1.0,0.01,> 10,0.2 -/min.
"CCOC(=O)c1c2c(c3ccccc3c1C)OC(c1ccccc1)(c1ccccc1)C=C2 [Compound C2, 5-Ethoxycarbonyl-6-methyl-2,2-diphenyl-2H-benzo(h) chromene, reference compound]",–,–,–,–,–,–,4.0,95,458,0.9,0.02,4.0,0.2 -/min.
"Cc1c2c(c3ccccc3c1C)OC(c1ccccc1)(c1ccccc1)C=C2 [Compound C3, 5,6-Dimethyl-2,2-diphenyl-2H-benzo(h)chromene, reference compound]",–,–,–,–,–,–,5.0,95,480,1.0,0.01,10,0.2 -/min.
"C1=CC(c2ccccc2)(c2ccccc2)Oc2ccc3ccccc3c21 [Compound C4, 3,3-Diphenyl-3H-benzo(f)chromene, reference compound]",–,–,–,–,–,–,5.0,95,432,0.5,0.01,1.0,0.2 -/min.
"COc1ccc(C2(c3ccc(OC)cc3)C=Cc3ccc4ccccc4c3O2)cc1 [a, reference compound]",–,2.5,97,> 30,492,1.3,–,–,–,–,–,–,–
"CCOC(=O)C1=CC(c2ccccc2)(c2ccccc2)Oc2c1cc(C)c1ccccc21 [b, reference compound]",–,6.5,80,14,488,1.2,–,–,–,–,–,–,–
"Cc1cc2ccccc2c2c1C=CC(c1ccccc1)(c1ccccc1)O2 [c, reference compound]",–,2.4,96,20,484,1.3,–,–,–,–,–,–,–
"C1=CC2(Oc3c1ccc1ccccc31)C1CCCC2CCC1 (stereo not drawn) [d, reference compound]",–,1.5,98,11,452,1.0,–,–,–,–,–,–,–
"CCOC(=O)c1c2c(c3ccccc3c1C)OC1(C=C2)C2CCCC1CCC2 (stereo not drawn) [f, reference compound]",–,6.0,96,4.1,446,0.6,–,–,–,–,–,–,–
